Measurements taken from publication PMC5548696 (Bioorganic & medicinal chemistry letters, 2017).
Blank lines part the entries; values can stand above or below the molecule they belong to.

Tests used:
[1] = molecular target: T1, Recombinant human ENGase (Homo sapiens, UniProt Q8NFI3); type: biochemical; conditions: 100 μM drug concentration; first round, 13 drugs
T1 sequence (Q8NFI3 1-743): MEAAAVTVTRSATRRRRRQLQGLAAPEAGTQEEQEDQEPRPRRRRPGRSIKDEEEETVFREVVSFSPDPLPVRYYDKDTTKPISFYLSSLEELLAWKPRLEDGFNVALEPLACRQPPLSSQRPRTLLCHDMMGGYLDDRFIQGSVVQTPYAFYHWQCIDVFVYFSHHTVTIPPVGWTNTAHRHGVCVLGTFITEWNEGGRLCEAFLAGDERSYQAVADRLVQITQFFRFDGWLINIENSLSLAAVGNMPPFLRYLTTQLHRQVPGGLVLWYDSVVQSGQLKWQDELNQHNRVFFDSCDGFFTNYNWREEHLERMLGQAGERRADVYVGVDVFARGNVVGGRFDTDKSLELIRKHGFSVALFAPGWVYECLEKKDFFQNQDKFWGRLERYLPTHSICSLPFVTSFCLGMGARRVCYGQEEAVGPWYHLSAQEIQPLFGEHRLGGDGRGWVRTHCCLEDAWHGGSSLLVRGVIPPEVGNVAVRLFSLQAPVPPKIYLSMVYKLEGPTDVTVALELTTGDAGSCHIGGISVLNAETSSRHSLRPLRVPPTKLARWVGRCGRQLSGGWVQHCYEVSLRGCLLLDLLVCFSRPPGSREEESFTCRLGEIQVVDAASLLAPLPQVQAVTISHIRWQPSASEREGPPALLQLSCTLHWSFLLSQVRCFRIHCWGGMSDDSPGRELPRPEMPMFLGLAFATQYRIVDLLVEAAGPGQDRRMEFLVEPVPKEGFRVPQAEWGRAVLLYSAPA

[2] = system: H+/K+ ATPase; conditions: cited from earlier work
[3] = molecular target: human ENGase; conditions: read-out: IC50, human ENGase inhibitors; earlier reports; cited from earlier work

- inhibition of ENGase enzyme activity, preliminary ENGase inhibitor screening [1]: inhibited ENGase enzyme activity
Molecule: Cc1c(OCC(F)(F)F)ccnc1C[S+]([O-])c1nc2ccccc2[nH]1 (stereo not drawn) [Lansoprazole]

Molecule: COCCCOc1ccnc(C[S+]([O-])c2nc3ccccc3[nH]2)c1C (stereo not drawn) [Rabeprazole]
- target affinity [2]: ~ 70 nM

Molecule: Man9GlcNAc-thiazoline
- IC50 [3]: 420 nM
